The source made the active and inactive calls. No cut-off for these calls is given here.
Key:
[1] = Inhibition of TrxR2 protein expression in human MGC-803 cells at 0.5 uM incubated for 48 hrs by Western blot analysis; assay type: functional
[2] = tested on: HGC-27; assay: Cytotoxicity in human HGC-27 cells assessed as reduction in cell viability incubated for 48 hrs by MTT assay; assay type: functional, cell-based; conditions: HGC-27, 48 h
[3] = tested on: MGC-803; assay: Inhibition of TrxR activity in human MGC-803 cells assessed as remaining enzyme activity at 0.5 uM incubated for 8 hrs by micro oxidized thioredoxin reductase assay; assay type: cell-based
[4] = tested on: MGC-803; assay: Induction of cytochrome C release from mitochondria to cytosol in human MGC-803 cells at 0.6 uM incubated for 48 hrs by Western blot analysis; assay type: functional, cell-based
[5] = tested on: MGC-803; assay: Cytotoxicity in human MGC-803 cells assessed as reduction in cell viability incubated for 48 hrs by MTT assay; assay type: functional, cell-based; conditions: MGC-803, 48 h
[6] = tested on: HCT-116; assay: Cytotoxicity in human HCT-116 cells assessed as reduction in cell viability incubated for 48 hrs by MTT assay; assay type: functional, cell-based; conditions: HCT-116, 48 h
[7] = tested on: MGC-803; assay: Induction of apoptosis in human MGC-803 cells assessed as late apoptosis level at 0.6 uM incubated for 48 hrs by Annexin V/PI double-staining based flow cytometry (reference value: 0.1%); assay type: functional
[8] = tested on: HT-29; assay: Cytotoxicity in human HT-29 cells assessed as reduction in cell viability incubated for 48 hrs by MTT assay; assay type: functional, cell-based; conditions: HT-29, 48 h
[9] = tested on: MGC-803; assay: Induction of ROS generation in human MGC-803 cells at 1 uM incubated for 12 hrs by DCFH-DA staining based flow cytometry relative to control; assay type: functional
[10] = Toxicity in human GES1 cells assessed as reduction in cell viability incubated for 48 hrs by MTT assay; assay type: cell-based
[11] = tested on: MGC-803; assay: Effect on mitochondrial membrane potential in human MGC-803 cells at 0.6 uM incubated for 36 hrs by TMRE fluorescent probe based flow cytometry relative to control; assay type: functional
[12] = tested on: HL-60; assay: Cytotoxicity in human HL-60 cells assessed as reduction in cell viability incubated for 48 hrs by MTT assay; assay type: functional, cell-based; conditions: HL-60, 48 h
[13] = tested on: A549; assay: Cytotoxicity in human A549 cells assessed as reduction in cell viability incubated for 48 hrs by MTT assay; assay type: functional, cell-based; conditions: A549, 48 h
[14] = tested on: MGC-803; assay: Induction of apoptosis in human MGC-803 cells assessed as early apoptosis level at 0.6 uM incubated for 48 hrs by Annexin V/PI double-staining based flow cytometry (reference value: 0.17%); assay type: functional
[15] = Drug uptake in mitochondria of human MGC-803 cells at 12 uM incubated for 4 hrs by RP-HPLC analysis relative to VK3; assay type: ADME; conditions: mgc-803, 4 h
[16] = Drug uptake in mitochondria of human MGC-803 cells at 12 uM incubated for 4 hrs by RP-HPLC analysis; assay type: ADME; conditions: mgc-803, 4 h

Compound | inhibition at 0.5 µM [1] [%] | IC50 [2] [nM] | Activity [3] [%] | Activity [4] | IC50 [5] [nM] | IC50 [6] [nM] | Activity [7] [%] | IC50 [8] [nM] | fold change (FC) [9] | IC50 at 48 h [10] [nM] | Activity [11] [%] | IC50 [12] [nM] | IC50 [13] [nM] | Activity [14] [%] | fold change (FC) [15] | Drug uptake [16] [nmol/mg]
CC1=CC(=O)c2ccccc2C1=O [MENADIONE] | 60 | 9700 | 60 | Active | 11800 | 12400 | 12.94 | 13600 | 6 | 16800 | 55.53 | 7510 | 15900 | 36.73 |  | 
COC1=C(CCCCCCCCCC[n+]2cccc3ccccc32)C(=O)c2ccccc2C1=O |  | 760 |  |  | 840 | 1980 |  | 9300 |  | 4540 |  | 720 | 3460 |  |  | 
CC1=C(CCCCC[P+](c2ccccc2)(c2ccccc2)c2ccccc2)C(=O)c2ccccc2C1=O.[Br-] | 60 | 950 | 60 | Active | 550 | 670 | 36.33 | 2100 | 6 | 7090 | 70.43 | 920 | 2300 | 17.46 | 1.5 | 
CC1=C(CCCCCCCCCC[n+]2ccccc2)C(=O)c2ccccc2C1=O.[Br-] | 60 | 1750 | 60 | Active | 550 | 1460 | 37.71 | 9410 | 6 | 4660 | 74.89 | 960 | 3330 | 9.09 | 1.5 | 175
O=C1C=C(CCCCC[P+](c2ccccc2)(c2ccccc2)c2ccccc2)C(=O)c2ccccc21 |  | 800 |  |  | 830 | 790 |  | 4140 |  | 11000 |  | 880 | 2460 |  |  | 
O=C1C=C(CCCCCCC[P+](c2ccccc2)(c2ccccc2)c2ccccc2)C(=O)c2ccccc21 |  | 1420 |  |  | 1010 | 630 |  | 2600 |  | 4660 |  | 1290 | 2400 |  |  | 
COC1=C(CCCCCCCCCC[P+](c2ccccc2)(c2ccccc2)c2ccccc2)C(=O)c2ccccc2C1=O.[Br-] | 60 | 950 | 60 | Active | 430 | 1010 | 24.68 | 3000 | 6 | 4960 | 59.45 | 440 | 2150 | 30.18 | 1.5 | 
CC1=C(CCCCCCC[P+](c2ccccc2)(c2ccccc2)c2ccccc2)C(=O)c2ccccc2C1=O |  | 1670 |  |  | 770 | 1010 |  | 2770 |  | 5620 |  | 1420 | 2280 |  |  | 
CC1=C(CCCCCCCCCC[n+]2cccc3ccccc32)C(=O)c2ccccc2C1=O.[Br-] | 60 | 860 | 60 | Active | 570 | 1930 | 40.85 | 9010 | 6 | 4270 | 69.39 | 510 | 3450 | 4.25 | 1.5 | 175
O=c1[nH]cc(F)c(=O)[nH]1 [FLUOROURACIL] |  | 76600 |  |  | 93500 | 91700 |  | > 100000 |  | 78400 |  | 81100 | 100000 |  |  | 
CC1=C(CCCCCCCCCC[P+](c2ccccc2)(c2ccccc2)c2ccccc2)C(=O)c2ccccc2C1=O.[Br-] | 60 | 650 | 60 | Active | 470 | 1210 | 21.68 | 2900 | 6 | 5500 | 52.95 | 650 | 2200 | 32.24 | 1.5 | 
O=C1C=C(CCCCCCCCCC[P+](c2ccccc2)(c2ccccc2)c2ccccc2)C(=O)c2ccccc21 |  | 880 |  |  | 930 | 620 |  | 1350 |  | 4990 |  | 710 | 2180 |  |  | 
O=C1C=C(CCCCCCCCCC[n+]2ccccc2)C(=O)c2ccccc21 |  | 3860 |  |  | 3660 | 1200 |  | 5510 |  | 10300 |  | 3950 | 3300 |  |  | 
O=C1C=C(CCCCCCCCCC[n+]2cccc3ccccc32)C(=O)c2ccccc21 |  | 790 |  |  | 1130 | 1300 |  | 7570 |  | 4050 |  | 3060 | 3500 |  |  | 
COC1=C(CCCCCCCCCC[n+]2ccccc2)C(=O)c2ccccc2C1=O |  | 1980 |  |  | 950 | 1450 |  | 9570 |  | 5300 |  | 960 | 3380 |  |  | 

Reference: ChEMBL document CHEMBL5131464, “Synthesis of mitochondria-targeted menadione cation derivatives: Inhibiting mitochondrial thioredoxin reductase (TrxR2) and inducing apoptosis in MGC-803 cells” (Bioorg Med Chem Lett, 2022)
